Tests used:
[1] = tested on: ring-stage P. falciparum parasites; assay: Asexual stage of arrest assay; type: cell-based, Plasmodium falciparum; conditions: 10 times EC50, sampled every 12 h for 48 h
Procedure: Characterization of asexual stage phenotype and rate of asexual kill is important in determining the downstream application and TCP of an antimalarial series. […] Parasites were sampled every 12 h for 48 h, to prepare Giemsa-stained blood smears for analysis by microscopy. Parasitemia of each sample was measured by flow cytometry using SYBR-Green DNA staining.
Asexual Stage of Arrest Assay. This assay was conducted as previously described.

3D7 P. falciparum strain = assay: Parasite reduction ratio (PRR) assay; type: cell-based, Plasmodium falciparum; conditions: 10 times the EC50, up to 120 h
Procedure: The parasite reduction ratio (PRR) assay is a benchmark assay used to determine the speed of kill of antimalarials at an early stage of development. […] After 28 days of incubation, parasite growth is measured using an LDH assay.
Parasite Reduction Ratio Assay. This is a platform assay conducted by TGC Lifesciences using a previously described protocol. […] Parasites were treated up to 120 h. Drug was renewed every 24 h over the entire treatment period (as directed). Samples of parasites were taken from the treated culture every 24 h (24, 48, 72, 96 and 120 h time points), drug was washed out and drug-free parasites were cultured in 96 well plates. To quantify number of viable parasites after treatment, serial dilutions were performed with the above-mentioned compounds after washing out the compound. Parasites were cultured in microtiter plates to allow all wells with viable parasites, to render detectable parasitaemia. After 22 days of culturing, cultured plates were checked for parasite growth. Final sampling was done after 28 days to confirm growth/no growth. The parasite levels were determined using a LDH assay as follows. A culture of parasitized red blood cells (RBC) of strain 3D7 with 0.25 % parasitaemia and 2 % haematocrit in RPMI-1640, 0.5 % albumax and 150 μM hypoxanthine is exposed to 3-fold serial dilutions of the compound. […]

female gamete = assay: Dual gamete formation assay, female gametes; type: cell-based; conditions: Plasmodium falciparum; NF54 parasites in a DGFA, 4 replicates
Procedure: To determine whether the cyclopropyl carboxamide class has transmission blocking potential we profiled selected analogs in a dual gamete formation assay. In this assay, stage V gametocytes are treated with compound, and gametogenesis is induced by the addition of xanthurenic acid. Male gamete viability is determined by an imaging algorithm measuring motile flagellation, while female viability is measured using an antibody to the female-specific Pfs25 surface marker. […] Collectively, the activity observed against male gametes is consistent with activity observed with other cyt b inhibitors.
Dual Gamete Formation Assay. Compounds were evaluated as previously described as a platform run at both Imperial College London and the London School of Hygiene and Tropical Medicine. Briefly, mature stage V gametocytes were exposed to compounds for 48 h at 37 °C in 384 well plates in gametocyte culture medium (RPMI 1640 supplemented with 25 mM HEPES, 50 μg/mL hypoxanthine, 4.8 g/L NaHCO3, 2 mM L-glutamine, 5 % pooled type AB serum, 0.5 % Albumax II (Gibco)) under a 1 % O2/3 % CO2/96 % N2 environment. Gametogenesis was then triggered by the addition of 10 μL ookinete medium (gametocyte culture medium supplemented with 100 μM xanthurenic acid and 0.27 μg/mL Cy3-labelled anti-Pfs25 antibody) to each well at room temperature. Plates were then cooled on a metal block at 4 °C for 4 min to ensure even cooling and then stabilized for a further 4 min at 28 °C. At 20 min post-induction, male gametogenesis was recorded in each well by automated brightfield microscopy using a × 4 objective lens and 1.5 × magnifier ( × 6 effective magnification). Afterward, plates were incubated in the dark at room temperature for 24 h and then female gametogenesis recorded in each well by automated fluorescence microscopy (anti-Pfs25-positive cells). […] All data was evaluated in comparison to the positive and negative controls to calculate percentage inhibition of male and female gametocytes, and dose response analysis and EC50 calculation performed using GraphPad Prism.

O=C(NC1CC1)c1ccc(CN(Cc2ccc(Cl)cc2Cl)C2CC2)cc1 [W499 (2)]
asexual stage of arrest [1]: parasite arrest at the start of the trophozoite stage
rate of kill in PRR assay (3D7 P. falciparum strain): moderate to slow rate of kill
EC50 (female gamete): > 25 µM
